Values joined by “and” are separate entries in the source; they are usually repeats but may differ in a detail not shown here. Equal entries are not always repeated.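 The compound was tested at five concentrations on cells cultured in 96-well plates, with a 48-hour exposure period. GI50 is the concentration that inhibits growth by half. TGI denotes the concentration required for complete inhibition of growth.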
What was measured:
Assay in all cases: growth of human tumour cells (NCI), 48 h
DU-145 prostate = tested on: DU-145 prostate
HT29 colon = tested on: HT29 colon
IGROV1 ovarian = tested on: IGROV1 ovarian
NCI-H23 lung = tested on: NCI-H23 lung
OVCAR-3 ovarian = tested on: OVCAR-3 ovarian
PC-3 prostate = tested on: PC-3 prostate
SF-268 CNS = tested on: SF-268 CNS
SF-295 CNS = tested on: SF-295 CNS
SK-MEL-5 melanoma = tested on: SK-MEL-5 melanoma
SW-620 colon = tested on: SW-620 colon
U251 CNS = tested on: U251 CNS

| SMILES | TGI (DU-145 prostate) [µM] | TGI (HT29 colon) | TGI (IGROV1 ovarian) | TGI (NCI-H23 lung) | TGI (OVCAR-3 ovarian) | TGI (PC-3 prostate) [µM] | TGI (SF-268 CNS) | TGI (SF-295 CNS) | TGI (SK-MEL-5 melanoma) | TGI (SW-620 colon) | TGI (U251 CNS) | GI50 (HT29 colon) [µM] | GI50 (IGROV1 ovarian) [µM] | GI50 (NCI-H23 lung) [µM] | GI50 (OVCAR-3 ovarian) | GI50 (SF-268 CNS) | GI50 (SF-295 CNS) | GI50 (SK-MEL-5 melanoma) [µM] | GI50 (SW-620 colon) [µM] | GI50 (U251 CNS) [µM] |
| --- | --- | --- | --- | --- | --- | --- | --- | --- | --- | --- | --- | --- | --- | --- | --- | --- | --- | --- | --- | --- |
| O=C(CCC(=O)c1ccc(Cl)cc1)NO | > 100 | > 100 µM | > 100 µM | > 100 µM | > 100 µM | > 100 | > 100 µM | > 100 µM | > 100 µM | > 100 µM | > 100 µM |  |  |  |  |  |  |  |  |  |
| CNC(=O)OCC1=C(COC(=O)NC)C(C)N(c2ccc(OC)cc2)C1 (configuration not stated) | > 100 | > 100 µM | > 100 µM | > 100 µM | > 100 µM | > 100 | > 100 µM | > 100 µM | > 100 µM | > 100 µM | > 100 µM |  |  |  |  |  |  |  |  |  |
| C=C(Br)C(C)(Cl)CCC(Br)C(C)(C)Cl (configuration not stated) | > 100 | > 100 µM | > 100 µM | > 100 µM | 35.6 µM | > 100 | > 100 µM | > 100 µM | > 100 µM | 94.7 µM | > 100 µM |  |  |  |  |  |  |  |  |  |
| NC(=O)C(c1ccccc1)N1OC2C(=O)N(c3ccccc3)C(=O)C2C1c1c2ccccc2c(Cl)c2ccccc12 (configuration not stated) | > 100 | > 100 µM | > 100 µM | > 100 µM | > 100 µM | > 100 | > 100 µM | > 100 µM | > 100 µM | > 100 µM | > 100 µM |  |  |  |  |  |  |  |  |  |
| O=C(NNC(=O)c1ccccc1SSc1ccccc1C(=O)NNC(=O)c1ccccc1S)c1ccccc1S | > 54.7 | > 95.2 µM | > 100 µM | 62.2 µM | > 100 µM | > 74.9 | > 52.5 µM | > 100 µM | > 100 µM | > 100 µM | > 71.9 µM |  |  |  |  |  |  |  |  |  |
| Cc1cc(=O)[nH]c(NN2C(Cl)C(=O)C2c2ccccc2O)n1 (configuration not stated) | > 100 | > 100 µM | > 100 µM | > 100 µM | 23.3 µM | > 100 | > 100 µM | > 100 µM | 17.2 µM | > 100 µM | > 100 µM |  |  |  |  |  |  |  |  |  |
| FC(F)(F)c1cc(Cl)cnc1N/N=C(/c1ccccc1)c1ccccn1 | > 100 | 20.5 µM | 5.59 µM | 14.4 µM | 12.7 µM | 89.7 | 11.3 µM | 5.5 µM | > 100 µM | > 100 µM | 41.3 µM |  |  |  |  |  |  |  |  |  |
| Cc1cc(O)c2c(=O)c3ccccc3[nH]c2c1 | > 100 | 38 µM | 94.2 µM | > 100 µM | > 100 µM | 77.3 | > 100 µM | 51.2 µM | 31.1 µM | > 100 µM | > 100 µM |  |  |  |  |  |  |  |  |  |
| O=C(O)CN(CC(=O)O)C1CCCCC1N(CC(=O)O)CC(=O)NCCN=C=S (configuration not stated) | > 100 | > 100 µM | > 100 µM | > 100 µM | > 100 µM | > 100 | > 100 µM | > 100 µM | > 100 µM | > 100 µM | > 100 µM |  |  |  |  |  |  |  |  |  |
| C=C1c2nc3ccccc3n2C=C(c2ccccc2)N1c1ccc([N+](=O)[O-])cc1 | > 74.7 | > 61.1 µM | 27 µM | 38.5 µM | 60.2 µM | 68.2 | 49.1 µM | 18.5 µM | 40.8 µM | 59 µM | 22.6 µM |  |  |  |  |  |  |  |  |  |
| COC(=O)[C@H]1CO[C@@H](C(C)(C)C)N1C(=O)N1C=CC(=O)C[C@@H]1C | > 100 | > 100 µM | > 100 µM | > 100 µM | > 100 µM | > 100 | > 100 µM | > 100 µM | > 100 µM | > 100 µM | > 100 µM |  |  |  |  |  |  |  |  |  |
| Cc1cccc(/C=N/NC(=S)Nc2ccccc2)n1 | > 67.7 | > 100 µM | > 25 µM | > 72.7 µM | 13.6 µM | > 91.1 | > 100 µM | > 100 µM | > 22.5 µM | > 100 µM | > 54.9 µM |  |  |  |  |  |  |  |  |  |
| Cc1c2cnccc2c(C)c2c1c1ccccc1n2CCCN | 0.798 | 1.01 µM and 0.292 µM | 1.74 µM and 0.973 µM | 1.18 µM and 0.482 µM | 1.84 µM and 0.833 µM | 0.644 | 0.879 µM and 0.583 µM | 0.865 µM and 1.24 µM | 1.44 µM and 2.17 µM | 0.878 µM and 0.211 µM | 0.911 µM and 0.523 µM | 0.0277 | 0.198 | 0.165 | 0.721 µM and 0.251 µM | 0.2 µM and 0.141 µM | 0.285 µM and 0.24 µM | 1.01 | 0.035 | 0.0696 |
| C(/c1ccco1)=c1/nc(-c2ccccc2)n2c1nc1ccccc12 | > 100 | > 100 µM | > 100 µM | > 100 µM | > 100 µM | 9.43 | > 100 µM | > 100 µM | > 100 µM | > 100 µM | > 100 µM |  |  |  |  |  |  |  |  |  |
| CC(C)/C(Cl)=N\OC(=O)Nc1ccc(S(N)(=O)=O)cc1 | 31.8 | 48.4 µM | 33.9 µM | 37.8 µM | 28.2 µM | 32.6 | 51.7 µM | 29.3 µM | 29.4 µM | 3.41 µM | 35.7 µM |  |  |  |  |  |  |  |  |  |
| CCOc1cc2c(cc1O)/C(=N\OC)C[C@@H]1[C@@H]2CC[C@]2(C)[C@@H](O)CC[C@@H]12 | > 100 | 15.3 µM | > 30.1 µM | > 39.2 µM | 2.29 µM | > 30.7 | > 43.3 µM | 2.32 µM | 12.6 µM | > 35.3 µM | 22.8 µM |  |  |  |  |  | 0.242 µM |  |  |  |
| COc1cc(/C=C2\S/C(=N/Nc3nc(-c4ccc(Br)cc4)cs3)NC2=O)cc(OC)c1OC | 52.4 | 32.5 µM | 37 µM | 25.7 µM | 30.3 µM | 18.6 | > 100 µM | 36.6 µM | 20.2 µM | 30.8 µM | 16.3 µM |  |  |  |  |  |  |  |  |  |
| COC(=O)c1cc2c(n1S(=O)(=O)c1ccc(C)cc1)C(=O)C(=O)c1[nH]cc(C(=O)OCc3ccccc3)c1-2 | 0.276 | 1.15 µM | 0.559 µM | 0.211 µM | 0.0913 µM | 1.13 | 1.24 µM | 0.259 µM | 0.064 µM | 0.174 µM | 0.809 µM |  |  |  |  |  |  |  |  |  |
| COc1cc(/C=C/C(=N\NS(=O)(=O)c2ccc(C)cc2)c2sc(NNC(C)=O)nc2C)ccc1O | > 100 | > 100 µM | > 100 µM | > 100 µM | > 100 µM | > 100 | > 100 µM | > 100 µM | > 100 µM | > 100 µM | > 100 µM |  |  |  |  |  |  |  |  |  |
| CCC[C@@H](O)C[C@@H]1CCC[C@H](C[C@@H](O)CC)N1C | > 100 | > 100 µM | > 100 µM | > 100 µM | > 100 µM | > 100 | 45.1 µM | > 100 µM | > 100 µM | > 100 µM | > 100 µM |  |  |  |  |  |  |  |  |  |
| O=c1[nH][nH]c(=O)n1Cc1ccccc1Cn1c(=O)[nH][nH]c1=O | > 100 | > 100 µM | > 100 µM | > 100 µM | > 100 µM | > 100 | > 100 µM | > 100 µM | > 100 µM | > 100 µM | > 100 µM |  |  |  |  |  |  |  |  |  |
| CC(C)c1ccc(/C=C2/C=C(c3ccc4ccccc4c3)OC2=O)cc1 | > 100 | > 100 µM | > 100 µM | > 100 µM | > 100 µM | > 100 | > 100 µM | > 100 µM | 29 µM | > 100 µM | > 100 µM |  |  |  |  |  |  |  |  |  |
| CCOC(=O)C(NC(C)=O)(Nc1ccc(F)cc1)C(F)(F)F (configuration not stated) | > 100 | > 100 µM | > 100 µM | > 100 µM | > 100 µM | > 100 | > 100 µM | > 100 µM | > 100 µM | > 100 µM | > 100 µM |  |  |  |  |  |  |  |  |  |
| Cc1ccccc1-n1c(=O)c2ncn(CCCl)c2n(-c2ccccc2C)c1=S | > 100 | > 100 µM | > 100 µM | > 100 µM | > 100 µM | > 100 | > 100 µM | > 100 µM | > 100 µM | > 100 µM | > 100 µM |  |  |  |  |  |  |  |  |  |
| COc1c(C)c(C/C=C(\C)CCCCO[Si](c2ccccc2)(c2ccccc2)C(C)(C)C)c(OC)c(OC)c1OC | 37.6 | > 46.4 µM | 42.2 µM | 38.7 µM | > 46.4 µM | > 100 | > 100 µM | > 46.4 µM | 38.6 µM | > 46.4 µM | > 46.4 µM |  |  |  |  |  |  |  |  |  |
| CC(=O)O[C@H]1C(=O)[C@]2(C)[C@@H](OC(=O)OCCC(O)CO)C[C@H]3OC[C@@]3(OC(C)=O)[C@H]2[C@H](OC(=O)c2ccccc2)[C@]2(O)C[C@H](OC(=O)[C@H](O)[C@@H](NC(=O)c3ccccc3)c3ccccc3)C(C)=C1C2(C)C (some centres not stated) | 0.0657 | 0.526 µM | 19.8 µM | 21.7 µM | 0.0932 µM | > 36.2 | 34.9 µM | 1.12 µM | 13.1 µM | > 46.4 µM | 18 µM |  |  |  |  |  |  |  |  |  |
| CC(C)CC(=O)OC[n+]1ccc(-c2c(COC(=O)NC(C)C)c(COC(=O)NC(C)C)c3n2CCC3)cc1 | > 100 | > 100 µM | > 100 µM | > 100 µM | > 100 µM | > 100 | > 100 µM | > 100 µM | > 100 µM | > 100 µM | > 100 µM |  |  |  |  |  |  |  |  |  |

Reference: PubChem BioAssay (NCI)
